Laboratory results from patent publication US12653191B2, “Active compound combinations” (Bayer Aktiengesellschaft, priority 2020, dated 2026).
Read-outs that look alike come from different tables or passages of the source.

What was measured:
[1] = system: Alternaria alternata; assay: in vitro-Test with fungal microorganisms, Method B (tables A13-A22); format: cell-based; conditions: Alternaria alternata, single compound, 0.2 ppm; read-out: Efficacy
How it was run: (§1)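 Steps: solvent evaporation leaves the compound coating the wells; fungus-inoculated liquid growth medium goes on top; absorbance at 600 nm is measured; incubation runs 3 to 7 days at 20° C. with 85% relative humidity. Inhibition is then read photometrically and expressed as efficacy against untreated control.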

[2] = system: Fusarium culmorum; assay: in vitro-Test with fungal microorganisms, Method B (tables G5-G15); format: cell-based; conditions: Fusarium culmorum, single active compound, read-out: Efficacy
How it was run: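 Efficacy, relative to untreated control (0% = growth as in control, 100% = no growth), from photometric growth measurement at 600 nm after 3 to 7 days at 20° C., 85% relative humidity. Compound applied in methanol+emulsifier, solvent evaporated, then spore/mycelium-amended liquid medium added.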

[3] = system: Parastagonospora nodorum; assay: in vitro-Test with fungal microorganisms, Method B (tables H5-H8); format: cell-based; conditions: Parastagonospora nodorum, 0.04 ppm; read-out: Efficacy
Protocol: Example: In Vitro-Test with Fungal Microorganisms
Wells of 96-well microtiter plates are filled with 30 μl of a preparation of test compound or compound combination in methanol+emulsifier alkylaryl-polyglycol-ether. Thereafter, the solvent is evaporated in a hood. At the next step, 200 μl of liquid growth medium is given, that has been amended with an appropriate concentration of spores or mycelium suspension of the test fungus.
With the aid of a photometer, the extinction in all wells is measured at the wavelength of 600 nm.
The microtiter plates are incubated for 3 to 7 days at 20° C. and 85% relative humidity. After the incubation inhibition of growth is determined photometrically. Efficacy is calculated in relation to the untreated control, 0% efficacy means fungal growth as high as in untreated control while 100% efficacy means no fungal growth is measured.
The data in tables A1 to A12, B1 to B14, C1 to C10, D1 to D8, E1 to E8, F1 to F11, G1 to G4, H1 to H4 and I1 to I5 were collected according to Method A. The data in tables A13 to A22, B15 to B18, C11 to C20, E9 to E16, F12 to F15, G5 to G15, H5 to H8, I6 to I11 and J1 to J11 were collected according to Method B.

[4] = system: Colletotrichum coccodes; assay: in vitro-Test with fungal microorganisms, Method B (tables J1-J11); format: cell-based; conditions: Colletotrichum coccodes, read-out: Efficacy %
How it was run: as §1

[5] = system: Cordana musae; assay: in vitro-Test with fungal microorganisms, Method B (tables E9-E16); format: cell-based; conditions: Neocordana musae, single active, read-out: Efficacy
How it was run: as §1

[6] = system: Cercospora beticola; assay: in vitro-Test with fungal microorganisms, Method A (tables C1-C10); format: cell-based; conditions: Cercospora beticola, read-out: Efficacy %
How it was run: (§2)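 Methanol/emulsifier compound solution evaporated in well; liquid potato dextrose medium + spore or mycelium suspension added; 20° C, 85% RH, 3-5 d; photometric read 620 nm; % efficacy vs untreated.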

[7] = system: Diaporthe citri; assay: in vitro-Test with fungal microorganisms, Method A (tables F1-F11); format: cell-based; conditions: Diaporthe citri, read-out: Efficacy
How it was run: as §2

[8] = system: Fusarium culmorum; assay: in vitro-Test with fungal microorganisms, Method A (tables G1-G4); format: cell-based; conditions: Fusarium culmorum, alone, read-out: Efficacy
How it was run: as §2

[9] = system: Alternaria alternate; assay: in vitro-Test with fungal microorganisms, Method A (tables A1-A12); format: cell-based, Alternaria alternata; conditions: Alternaria, applied alone, 20 ppm; read-out: Efficacy %
How it was run: as §2

[10] = system: Ustilago segetum var. avenae; assay: in vitro-Test with fungal microorganisms, Method A (tables I1-I5); format: cell-based; conditions: alone, 0.8 ppm; read-out: Efficacy %
How it was run: as §2

[11] = system: Botrytis cinerea; assay: in vitro-Test with fungal microorganisms, Method A (tables B1-B14); format: cell-based; conditions: Botrytis cinerea
How it was run: as §2

[12] = system: Cordana musae; assay: in vitro-Test with fungal microorganisms, Method A (tables E1-E8); format: cell-based; conditions: Neocordana musae, read-out: Efficacy %
How it was run: as §2

[13] = system: Cercospora beticola; assay: in vitro-Test with fungal microorganisms, Method B (tables C11-C20); format: cell-based; conditions: Cercospora beticola, single compound, read-out: Efficacy %
How it was run: as §1

[14] = system: Colletotrichum lindemuthianum; assay: in vitro-Test with fungal microorganisms, Method A (tables D1-D8); format: cell-based; conditions: Colletotrichum lindemuthianum, read-out: Efficacy %
How it was run: as §2

[15] = system: Ustilago segetum var. avenae; assay: in vitro-Test with fungal microorganisms, Method B (tables I6-I11); format: cell-based; conditions: 1 ppm; read-out: Efficacy %
How it was run: as §1

O=C1C2CC=CCC2C(=O)N1SC(Cl)(Cl)Cl (stereo not drawn) [(5.003) captan, captan]
9%: inhibition of growth at 0.8 ppm ([7]; applied alone, 0.8 ppm)
53%: inhibition of growth at 0.04 ppm ([4]; single active compound at 0.04 ppm)
0%: inhibition of growth at 0.2 ppm [1] | inhibition of growth at 0.04 ppm ([2]; 0.04 ppm) | inhibition of growth at 0.04 ppm [3] | inhibition of growth at 0.2 ppm ([4]; 0.2 ppm) | inhibition of growth at 0.2 ppm ([4]; single active compound at 0.2 ppm) | inhibition of growth at 1 ppm ([4]; single active compound at 1 ppm) | inhibition of growth at 0.04 ppm ([5]; 0.04 ppm) | inhibition of growth at 1 ppm ([5]; 1 ppm) | inhibition of growth at 0.8 ppm ([6]; 0.8 ppm alone) | inhibition of growth at 0.8 ppm ([6]; 0.8 ppm) | inhibition of growth at 0.8 ppm ([8]; 0.8 ppm) | inhibition of growth at 0.8 ppm [10] | inhibition of growth at 0.8 ppm ([11]; read-out: Efficacy) | inhibition of growth at 4 ppm ([11]; 4.0 ppm, read-out: Efficacy) | inhibition of growth at 0.8 ppm ([11]; alone, read-out: Efficacy %) | inhibition of growth at 4 ppm ([12]; mixing partner alone) | inhibition of growth at 0.04 ppm ([13]; 0.04 ppm) | inhibition of growth at 0.4 ppm ([13]; 0.4 ppm) | inhibition of growth at 0.8 ppm ([14]; single active at 0.8 ppm)
28%: inhibition of growth at 1 ppm [15]
56%: inhibition of growth at 20 ppm [9]
16%: inhibition of growth at 0.2 ppm ([2]; 0.2 ppm)
100%: inhibition of growth at 5 ppm ([2]; 5 ppm) | inhibition of growth at 5 ppm ([4]; single active compound at 5 ppm) | inhibition of growth at 5 ppm ([5]; 5 ppm) | inhibition of growth at 4 ppm ([6]; 4.0 ppm) | inhibition of growth at 20 ppm ([6]; 20.0 ppm) | inhibition of growth at 4 ppm ([7]; Table F10, 4.0 ppm alone) | inhibition of growth at 20 ppm ([7]; Table F10, 20.0 ppm alone) | inhibition of growth at 4 ppm ([8]; 4.0 ppm) | inhibition of growth at 20 ppm ([8]; 20.0 ppm) | inhibition of growth at 20 ppm ([11]; alone, read-out: Efficacy %) | inhibition of growth at 4 ppm ([12]; single substance) | inhibition of growth at 20 ppm ([12]; single substance, 20.0 ppm) | inhibition of growth at 5 ppm ([13]; 5 ppm) | inhibition of growth at 4 ppm ([14]; mixing partner alone, 4.0 ppm) | inhibition of growth at 20 ppm ([14]; mixing partner alone, 20.0 ppm) | inhibition of growth at 4 ppm ([14]; single active at 4.0 ppm) | inhibition of growth at 20 ppm ([14]; single active at 20.0 ppm)
3%: inhibition of growth at 0.8 ppm ([14]; mixing partner alone, 0.8 ppm)
99%: inhibition of growth at 4 ppm ([7]; applied alone, 4.0 ppm)
88%: inhibition of growth at 4 ppm ([7]; single active, 4.0 ppm)
18%: inhibition of growth at 1 ppm ([2]; 1 ppm) | inhibition of growth at 0.8 ppm ([7]; Table F10, 0.8 ppm alone)
7%: inhibition of growth at 20 ppm ([11]; read-out: Efficacy)
24%: inhibition of growth at 0.8 ppm ([7]; single active, 0.8 ppm)
